Test results from the supplement of paper PMC10307832.

What was measured:
Test in all cases: relative viability (nuclei count vs DMSO), 5 days (fraction); higher = more cells survive
Ponatinib + Palbociclib = compound: Cc1ccc(C(=O)Nc2ccc(CN3CCN(C)CC3)c(C(F)(F)F)c2)cc1C#Cc1cnc2cccnn12 [Ponatinib] + CC(=O)c1c(C)c2cnc(Nc3ccc(N4CCNCC4)cn3)nc2n(C2CCCC2)c1=O [Palbociclib] (partner 0.5 µM)
In short: (§1)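 Lung cancer cell lines, seeded in 1536-well plates, were treated the following day by pin tool with a single drug or with five library-drug doses (not always all listed) in √10 steps on top of a fixed anchor-drug dose. Cells were fixed and nuclei stained in one step after 5 days, and nuclei were counted. Relative viability is the nuclei count for treated wells divided by that for vehicle wells, reported as medians of duplicate plates.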

Pazopanib + Palbociclib = compound: Cc1ccc(Nc2nccc(N(C)c3ccc4c(C)n(C)nc4c3)n2)cc1S(N)(=O)=O [Pazopanib] + CC(=O)c1c(C)c2cnc(Nc3ccc(N4CCNCC4)cn3)nc2n(C2CCCC2)c1=O [Palbociclib] (partner 0.5 µM)
In short: as §1

Ponatinib + AZD7762 = compound: Cc1ccc(C(=O)Nc2ccc(CN3CCN(C)CC3)c(C(F)(F)F)c2)cc1C#Cc1cnc2cccnn12 [Ponatinib] + NC(=O)Nc1cc(-c2cccc(F)c2)sc1C(=O)N[C@H]1CCCNC1 [AZD7762] (partner 0.2 µM)
In short: as §1

Ponatinib + Luminespib = compound: Cc1ccc(C(=O)Nc2ccc(CN3CCN(C)CC3)c(C(F)(F)F)c2)cc1C#Cc1cnc2cccnn12 [Ponatinib] + CCNC(=O)c1noc(-c2cc(C(C)C)c(O)cc2O)c1-c1ccc(CN2CCOCC2)cc1 [Luminespib] (partner 0.01 µM)
In short: as §1

**Q.** Which results are given for NCI-H1755?
**A.** relative viability (Ponatinib + Palbociclib; first compound 0.002 µM): 0.419; relative viability (Ponatinib + Palbociclib; first compound 0.006325 µM): 0.44; relative viability (Ponatinib + Palbociclib; first compound 0.06325 µM): 0.413; relative viability (Ponatinib + Palbociclib; first compound 0.2 µM): 0.369; relative viability (Pazopanib + Palbociclib; first compound 0.01 µM): 0.423; relative viability (Pazopanib + Palbociclib; first compound 0.03162 µM): 0.454; relative viability (Pazopanib + Palbociclib; first compound 0.1 µM): 0.47; relative viability (Pazopanib + Palbociclib; first compound 0.3162 µM): 0.457; relative viability (Pazopanib + Palbociclib; first compound 1 µM): 0.467; relative viability (Ponatinib + AZD7762; first compound 0.002 µM): 0.409; relative viability (Ponatinib + AZD7762; first compound 0.006325 µM): 0.379; relative viability (Ponatinib + AZD7762; first compound 0.06325 µM): 0.381; relative viability (Ponatinib + AZD7762; first compound 0.2 µM): 0.362; relative viability (Ponatinib + Luminespib; first compound 0.002 µM): 0.249; relative viability (Ponatinib + Luminespib; first compound 0.006325 µM): 0.696; relative viability (Ponatinib + Luminespib; first compound 0.06325 µM): 0.561; relative viability (Ponatinib + Luminespib; first compound 0.2 µM): 0.359
